Four compounds from patent US20120190691A1, “PHARMACEUTICAL COMPOSITIONS FOR TREATMENT OF RESPIRATORY AND INFLAMMATORY DISEASES” (priority 2010, published 2012) can be followed below.

The assay deals with ovalbumin-induced bronchospasm. Kind of assay: Ovalbumin-induced bronchospasm (modified Konzett-Rössler) in sensitized anaesthetized guinea pigs. It is filed as in vivo. The protocol:
Male and female Dunkin-Harley guinea pigs were obtained from the Experimental Animal Breeding Centre of Harlan Winkelmann (Germany). After fasting overnight, but with free access to drinking water, animals with body weight of 400-500 g were used.
Bronchospasm was recorded with a modified version of the method of Konzett-Röβler (described by Walland et al, in “Compensation of muscarinic bronchial effects of talsaclidine by concomitant sympathetic activation in guinea pigs”, European Journal of Pharmacology, Volume 330, Issue 2-3, 9 Jul. 1997, Pages 213-219). The animals were ventilated by means of a piston pump (starling ventilator, Hugo Sachs Elektronik, Germany) at a stroke volume of 1 ml/100 g body weight and at a rate of 60 strokes per min. The tubing which connected the tracheal cannula with the ventilator was provided with a branch leading to the bronchospasm transducer (bronchospasm transducer 7020, Ugo Basile, Italy). The air flow measurement is based on the hot wire anemometer principle. Any air flow will reduce the temperature of the wire, thereby decreasing its resistance in proportion of the flow. As the wire element is one arm of a Weaststone bridge, variation in resistance generate a proportional voltage output which feeds the amplifier/recording system (Notocord-hem, Notocord, France). Blood pressure and heart rate are monitored from a carotid artery in order to check the anesthesia and the variability of the preparation.
Guinea pigs were sensitized on 2 consecutive days with 20 μg ovalbumin (OVA) (Sigma, St. Louis, Mo.) and 20 mg Al(OH)3 in 0.5 ml saline, which were administered subcutaneously. Experiments, which included OVA challenge, were conducted 2 weeks after sensitization. Approximately 1 hour before OVA challenge, the animals were anaesthetized with an intraperitoneal injection of 50 mg/kg pentobarbital. Anesthesia was prolonged by intravenous infusion of pentobarbital (15 mg/kg/h) via the jugular vein. A tracheal cannula was introduced after tracheotomy for artificial ventilation. The internal jugular vein was cannulated for drug injection while the left carotid artery was cannulated for measuring blood pressure and heart rate. 30 minutes after the beginning of air flow and blood pressure measurements, bronchoconstriction is triggered by an OVA challenge given at a fixed dose of 50 μg/kg inhaled.
The test compounds or combinations of compounds were administered orally 2 hours before the OVA challenge.
The control group comprises 12 guinea-pigs, test compounds comprise 2 to 4 guinea-pigs.
Bronchoprotection of the drug (i.e. inhibition of OVA broncho-constriction) is expressed as a percentage of inhibition of the increase in overflow induced by OVA in the control animals.

[1] abbreviates: Desloratidine 2.0 mg/kg p.o. alone (CRTH2 antagonist (1) 0.0).
Where [2] appears, read: Pyrilamine 2.0 mg/kg p.o. alone (CRTH2 antagonist (1) 0.0).
[3] abbreviates: Fexofenadine 0.5 mg/kg p.o. alone (CRTH2 antagonist (1) 0.0).

As to `Clc1ccc2c(c1)CCc1cccnc1C2=C1CCNCC1` [Desloratidine, reference compound], under setting [1], the bronchoprotection was found to be 43% and the overflow came out at 34 mL.
Take `COc1ccc(CN(CCN(C)C)c2ccccn2)cc1` [Pyrilamine, reference compound]: under setting [2], the bronchoprotection stood at 45% and the overflow turned out to be 33 mL.
Turning to `CN(C)c1nc(Cc2ccc(NC(=O)c3ccc(C(F)(F)F)cc3)cc2)nc(N(C)C)c1CC(=O)O` [CRTH2 antagonist (1), [4,6-bis(dimethylamino)-2-(4-(4-(trifluoromethyl)benzamido)benzyl)pyrimidin-5-yl]-acetic acid], the overflow is, setting by setting: (CRTH2 antagonist (1) 0.01 mg/kg p.o. alone, 2 hours before OVA challenge) 63 mL; (CRTH2 antagonist (1) 0.03 mg/kg p.o. alone, 2 hours before OVA challenge) 65 mL; (CRTH2 antagonist (1) 0.10 mg/kg p.o. alone, 2 hours before OVA challenge) 69 mL; (CRTH2 antagonist (1) 0.30 mg/kg p.o. alone, 2 hours before OVA challenge) 60 mL; (CRTH2 antagonist (1) 1.00 mg/kg p.o. alone, 2 hours before OVA challenge) 65 mL; (CRTH2 antagonist (1) 3.00 mg/kg p.o. alone, 2 hours before OVA challenge) 61 mL. Besides, the overflow (CRTH2 antagonist (1) 10.00 mg/kg p.o. alone, 2 hours before OVA challenge) turned out to be 65 mL. Moreover, the “effect in this assay by itself” value (alone, conclusion) is “no effect”. The “effect by itself on the ovalbumin-induced bronchospasm” value (up to 10 mg/kg p.o., alone) is given as “no effect”.
On to `CC(C)(C(=O)O)c1ccc(C(O)CCCN2CCC(C(O)(c3ccccc3)c3ccccc3)CC2)cc1` (stereo not drawn) [Fexofenadine, reference compound], for which, under setting [3], the bronchoprotection is on record as 35% and the overflow stood at 39 mL.
